Source: paper PMC11345829, “Discovery of Potent Isoquinolinequinone N-Oxides to Overcome Cancer Multidrug Resistance” (Journal of Medicinal Chemistry, 2024)
Like-named read-outs stand apart in the source and are kept apart here.

Experiments:
[1] = test system: UACC-62; assay: NCI60 five-dose GI50; type: cell-based; settings: Homo sapiens, melanoma
Description: (§1) The concentration−response curve generated enables the determination of three criteria, GI50 (drug concentration at which 50% of cell growth is inhibited), total growth inhibition (TGI) and LC50 (drug concentration at which 50% of tumor cells are killed) which can be used to compare effectiveness against any compound tested in the screen since its inception.
(§2) S2.1 NCI Screening Assay Experimental details
(§3) NCI Screening Assay Experimental: Cancer cell growth assays (NCI60 screening) 5,6 One-dose study: Tested compounds were initially solubilised in DMSO, diluted into RPMI 1640 and 5% fetal bovine serum/L-glutamine, and added to 96-well plates containing cell lines previously cultured for 24 h. After 48 h incubation, the media were removed, and the cells were fixed and stained with sulforhodamine B to determine overall percent growth/ total protein content. Unbound dye was removed with five washes of 1% acetic acid, and the plates were allowed to air dry. The dye was then resolubilised in Tris buffer, and the colorimetric absorbance was measured (515 nm). Growth inhibition was measured relative to the response generated from proliferating cells cultured under identical conditions for 48 h. Data from one-dose experiments pertains to the percentage growth at […]
(§4) Five-dose study: Serial 5 × 10-fold dilution from an initial DMSO stock solution was performed, prior to incubation at each individual concentration (10 nM, 100 nM, 1 μM, 10 μM and 100 μM). Using seven absorbance measurements (time zero (Tz), control growth (C), and test growth in the presence of drug at the five concentration levels (Ti)), the percentage growth was calculated at each of the drug concentrations levels. Percentage growth inhibition was calculated as: [(Ti − Tz)/(C − Tz)] × 100 for concentrations for which Ti ≥ Tz, [(Ti − Tz)/Tz] × 100 for concentrations for which Ti < Tz. Three dose response parameters were calculated for each experimental agent. […]
(§5) was calculated from [(Ti − Tz)/(C − Tz)] × 100 = 50, which is the drug concentration resulting in a 50% reduction in the net protein increase (as measured by sulforhodamine B staining) in control cells during the drug incubation. The drug concentration resulting in total growth inhibition (TGI) was calculated from Ti = Tz. The LC50 (concentration of drug resulting in a 50% reduction in the measured protein at the end of the drug treatment as compared to that at the beginning) indicating a net loss of cells following treatment was calculated from [(Ti − Tz)/Tz] × 100 = −50. Values were calculated for each of these three parameters if the level of activity was reached; however, if the effect was not reached or was exceeded, the value for that parameter was expressed as greater or less than the maximum or minimum concentration tested.

[2] = test system: NCI-ADR/RES; assay: NCI60 five-dose GI50; type: cell-based; settings: Homo sapiens, MDR ovarian
Description: as §1, §2, §3, §4, §5

[3] = test system: COLO-205; assay: NCI60 five-dose GI50; type: cell-based; settings: Homo sapiens, colon
Description: as §1, §2, §3, §4, §5

[4] = test system: MCF-7; assay: NCI60 five-dose GI50; type: cell-based; settings: Homo sapiens, MCF7, breast
Description: as §1, §2, §3, §4, §5

[5] = test system: LOX-IMVI; assay: NCI60 five-dose GI50; type: cell-based; settings: Homo sapiens, melanoma
Description: as §1, §2, §3, §4, §5

[6] = test system: OVCAR-3; assay: NCI60 five-dose GI50; type: cell-based; settings: Homo sapiens, ovarian
Description: as §1, §2, §3, §4, §5

[7] = test system: K-562; assay: NCI60 five-dose GI50; type: cell-based; settings: Homo sapiens, K562, five dose
Description: as §1, §2, §3, §4, §5

[8] = test system: NCI60 tumor cell line panel; assay: NCI60 one-dose screen (10 μM), mean growth; type: cell-based, human; settings: for activity at 10 µM: Homo sapiens; for activity at 10 µM / mean growth (%, 10 μM): 48 h, one dose 10 μM, mean cell growth of 60 tumor cell lines
Method: as §2
as §3, with “h.” for “h. Data from one-dose experiments pertains to the percentage growth at”

[9] = test system: NCI60 tumor cell line panel; assay: NCI60 five-dose screen, mean over panel; type: cell-based, human; settings: five dose
Description: as §1, §2, §3, §4, §5

[10] = test system: OVCAR-8; assay: NCI60 five-dose GI50; type: cell-based; settings: Homo sapiens, ovarian
Description: as §1, §2
as §3, with “nm).” for “nm). Growth inhibition was measured relative to the response generated from proliferating cells cultured under identical conditions for 48 h. Data from one-dose experiments pertains to the percentage growth at”
as §4, §5

[11] = Homo sapiens, across 57-60 cell lines (number given per compound), read-out: Mean of GI50 as Log 10 Concentration (SD) (converted)
[12] = mean over 52 human tumor cell lines common to all analogues, read-out: mean GI50

Row | SMILES | GI50 [1] [nM] | GI50 [2] [nM] | GI50 [3] [nM] | GI50 [4] [nM] | GI50 [5] [nM] | GI50 [6] [nM] | GI50 ([7]; leukemia) [nM] | activity at 10 µM [8] [%] | GI50 [9, 11] [nM] | GI50 [9, 12] [nM] | GI50 [10] [nM] | mean growth (%, 10 μM) [8] [%] | one-dose screen outcome ([8]; 10 μM) | GI50 [7] [nM]
1 | COC(=O)c1c2c(c(C)[n+]([O-])c1C)C(=O)C(NCc1ccc(OC)cc1)=CC2=O [Compound 6] | 1720 | 2420 | 839 | 1410 | 2410 | 315 | 2670 | 19 | 2040 | 2120 | 2780 | – | – | –
2 | COC(=O)c1c2c(c(C)[n+]([O-])c1C)C(=O)C=C(NCc1ccc(OC)cc1)C2=O [Compound 7] | 374 | 419 | 325 | 300 | 408 | 284 | 491 | -34 | 1530 | 900 | 452 | -34 | – | –
3 | COC(=O)c1c2c(c(C)[n+]([O-])c1C)C(=O)C(NCc1cccc(OC)c1)=CC2=O [Compound 8] | 1700 | 2360 | 1100 | 1650 | 2360 | 512 | 2980 | 23 | 2210 | 2290 | 2520 | – | – | –
4 | COC(=O)c1c2c(c(C)[n+]([O-])c1C)C(=O)C=C(NCc1cccc(OC)c1)C2=O [Compound 9] | 306 | 441 | 252 | 286 | 302 | 259 | 416 | -52 | 607 | 740 | 339 | -52 | – | –
5 | COC(=O)c1c2c(c(C)[n+]([O-])c1C)C(=O)C(NCc1ccc(Cl)cc1)=CC2=O [Compound 10] | – | – | – | – | – | – | – | 57 | – | – | – | – | did not achieve sufficient growth inhibition | –
6 | COC(=O)c1c2c(c(C)[n+]([O-])c1C)C(=O)C=C(NCc1ccc(Cl)cc1)C2=O [Compound 11] | 55 | 267 | 238 | 267 | 39 | 208 | 58 | -32 | 412 | 550 | 292 | -32 | – | < 150
7 | COC(=O)c1c2c(c(C)[n+]([O-])c1C)C(=O)C(NCc1cccc(Cl)c1)=CC2=O [Compound 12] | 1240 | 1640 | 388 | 1100 | 1760 | 322 | 2170 | 12 | 1340 | 1480 | 1520 | – | – | –
8 | COC(=O)c1c2c(c(C)[n+]([O-])c1C)C(=O)C=C(NCc1cccc(Cl)c1)C2=O [Compound 13] | 144 | 352 | 263 | 270 | 94 | 243 | 109 | -42 | 405 | 620 | 297 | -42 | – | < 150
9 | COC(=O)c1c2c(c(C)[n+]([O-])c1C)C(=O)C(NCc1ccc(Br)cc1)=CC2=O [Compound 14] | 1170 | 1970 | 659 | 1330 | 1670 | 301 | 2380 | 18 | 1640 | 1800 | 1830 | – | – | –
10 | COC(=O)c1c2c(c(C)[n+]([O-])c1C)C(=O)C=C(NCc1ccc(Br)cc1)C2=O [Compound 15] | 46 | 439 | 313 | 289 | 84 | 273 | 47 | -50 | 515 | 780 | 465 | -50 | – | < 150
11 | COC(=O)c1c2c(c(C)[n+]([O-])c1C)C(=O)C(NCc1ccc(F)c(F)c1)=CC2=O [Compound 16] | 1530 | 2300 | 673 | 1480 | 1980 | 333 | 2230 | 11 | 1780 | 1910 | 1960 | – | – | –
12 | COC(=O)c1c2c(c(C)[n+]([O-])c1C)C(=O)C=C(NCc1ccc(F)c(F)c1)C2=O [Compound 17] | 68 | 345 | 260 | 290 | 64 | 258 | 113 | -49 | 421 | 580 | 299 | -49 | – | < 150
13 | COC(=O)c1c2c(c(C)[n+]([O-])c1C)C(=O)C(NCc1ccc(F)c(Cl)c1)=CC2=O [Compound 18] | 1380 | 2080 | 588 | 1320 | 2340 | 306 | 2670 | 4 | 1800 | 1510 | 2380 | – | – | –
14 | COC(=O)c1c2c(c(C)[n+]([O-])c1C)C(=O)C=C(NCc1ccc(F)c(Cl)c1)C2=O [Compound 19] | 41 | 321 | 211 | 229 | 31 | 199 | 51 | -47 | 290 | 560 | 249 | -47 | – | < 150
